{
  "source": "paper PMC8007111",
  "about": "“Novel Potent Muscarinic Receptor Antagonists: Investigation on the Nature of Lipophilic Substituents in the 5- and/or 6-Positions of the 1,4-Dioxane Nucleus” (Journal of Medicinal Chemistry, 2020)",
  "key": {"[1]": {"biological_target": "T1, hM5 mAChR (Homo sapiens, UniProt P08912)", "T1 construct": "expressed in transfected cells; host or cells: CHO-K1 (membrane preparation)", "T1 sequence (P08912 1-532)": "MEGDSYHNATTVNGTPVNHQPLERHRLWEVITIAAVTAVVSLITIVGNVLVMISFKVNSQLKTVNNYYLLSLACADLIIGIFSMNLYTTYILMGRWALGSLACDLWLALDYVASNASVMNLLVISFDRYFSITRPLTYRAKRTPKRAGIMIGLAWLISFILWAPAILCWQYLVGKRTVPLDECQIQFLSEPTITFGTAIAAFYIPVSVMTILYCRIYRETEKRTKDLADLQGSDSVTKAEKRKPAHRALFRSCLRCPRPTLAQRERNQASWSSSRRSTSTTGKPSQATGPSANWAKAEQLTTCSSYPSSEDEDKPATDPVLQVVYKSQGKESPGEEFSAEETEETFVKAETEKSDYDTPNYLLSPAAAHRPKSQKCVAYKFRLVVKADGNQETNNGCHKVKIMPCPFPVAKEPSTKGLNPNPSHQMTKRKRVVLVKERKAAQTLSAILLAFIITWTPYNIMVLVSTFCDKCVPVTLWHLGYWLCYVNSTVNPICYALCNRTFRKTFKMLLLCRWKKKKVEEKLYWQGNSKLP", "test": "[3H]NMS inhibition radioligand binding, hM5 in CHO-K1 cell membranes", "settings": "[3H]NMS, CHO-K1 cell membranes; mean ± S.E.M."}, "[2]": {"test_system": "MSCs from mouse bone marrow", "test": "MSC viability (MTS assay), dose-response", "format": "cell-based", "settings": "24 h", "method": "(§1) It is well established that bone marrow MSC behavior is influenced by a variety of signaling systems. In context, cholinergic intramural stimuli and, in particular, muscarinic signals orchestrate MSCs viability and commitment.[11],[12] Considering also the pluripotent MSC nature and their contribution to bone, blood, and systemic homeostasis,[53] viability studies on MSCs were performed to determine the functional profile of 3b, the most interesting compound in this series. […] Successively, the efficacy of 3b in contrasting cell viability induced by the well-known mAChR agonist carbachol was evaluated. […] Further research on the intracellular mechanistic outcomes of 3b on MSCs remains mandatory.\nThe in vitro studies were performed by using bone marrow MSCs as a model. […] After 2 weeks of initiating culture, cells were washed with PBS, detached by trypsinization, counted, and plated at the density of 5,000 cells/well in 96 culture plates (Costar Corp., Milano, Italy) in DMEM containing 10% HIFCS, penicillin, and streptomycin.\n(§2) MSCs were treated with compound 3b (from 10^–4 to 10^–10 M) for 24 h. […] At the end of each procedure, the MSCs viability was measured by MTS assay. […] The quantity of the formazan product was directly proportional to the number of living cells in culture. The colored formazan was measured by reading the absorbance at 490 nm using a […] plate reader."}, "[3]": {"test_system": "MSCs from mouse bone marrow", "test": "Carbachol-induced MSC viability (MTS assay)", "format": "cell-based", "settings": "pre-incubation 1 h, then carbachol 10^–10 M for 24 h", "method": "as §1\nThe in vitro studies were performed by using bone marrow MSCs as a model. Male BALB/c mice (Harlan Italy SrL, Milano, Italy) (8 weeks old; body weight ∼24.5 g; n = 4) were kept in a laminar-flow cage in a standardized environmental condition. Food (Harlan, Italy), and water was supplied ad libitum. Mice were sacrificed by CO2 narcosis and cervical dislocation in accordance with the recommendations of the Italian Ethical Committee and under the supervision of authorized investigators. Long bones (femurs and tibiae) were dissected and cleaned from skin, muscle, and connective tissues as much as possible. Bones were placed in a culture dish containing sterile PBS. Then, the bone cavity was flushed in DMEM with a syringe in order to collect the bone marrow cells into a 50 mL sterile tube. […] After 2 weeks of initiating culture, cells were washed with PBS, detached by trypsinization, counted, and plated at the density of 5,000 cells/well in 96 culture plates (Costar Corp., Milano, Italy) in DMEM containing 10% HIFCS, penicillin, and streptomycin.\nas §2"}},
  "data": [
    {"smiles": "C[N+](C)(C)C[C@@H]1COC[C@](c2ccccc2)(C2CCCCC2)O1.[I-]", "note": "(relative stereo) [3b, 1-((2R*,6R*)-6-Cyclohexyl-6-phenyl-1,4-dioxan-2-yl)-N,N,N-trimethylmethanaminium Iodide]", "values": [
      {"measurement": "pKi hM5", "setting": "[1]", "value": "8.41 ± 0.1"},
      {"measurement": "effect on MSCs viability", "setting": "[2]; high concentration (10^–4 M)", "value": "down-regulate MSCs viability"},
      {"measurement": "effect on MSCs viability", "setting": "[2]; low concentration (10^–10 M)", "value": "increased cell viability"},
      {"measurement": "effect on carbachol-induced MSC viability", "setting": "[3]", "value": "able to contrast the increase of carbachol-induced MSC viability"}
    ]}
  ]
}
